According to ChEMBL document CHEMBL1641475, “Synthesis, hypolipidemic and hypoglycemic activity of some novel 2-(4-(2-substituted aminothiazole-4-yl) phenoxy)-2-methyl propanoic acid derivatives” (2011):

Tests used:
Type in all cases: functional
Rattus norvegicus [1] = experiment: Antihyperlipidemic activity in high fat diet-induced hyperlipidemic Sprague-Dawley rat assessed as blood LDL level at 250 mg/kg, po after 7 days (reference value: 75.5 +/- 1.24 mg/dl)
Rattus norvegicus [2] = experiment: Antihyperlipidemic activity in high fat diet-induced hyperlipidemic Sprague-Dawley rat assessed as blood VLDL level at 250 mg/kg, po after 7 days (reference value: 27 +/- 0.3183 mg/dl)
Rattus norvegicus [3] = experiment: Antihyperlipidemic activity in high fat diet-induced hyperlipidemic Sprague-Dawley rat assessed as blood cholesterol level at 250 mg/kg, po after 7 days (reference value: 121.5 +/- 1.335 mg/dl)
Rattus norvegicus [4] = experiment: Antihyperlipidemic activity in high fat diet-induced hyperlipidemic Sprague-Dawley rat assessed as blood triglyceride level at 250 mg/kg, po after 7 days (reference value: 135 +/- 1.592 mg/dl)
Rattus norvegicus [5] = experiment: Antihyperglycemic activity in high fat diet-induced hyperglycemic Sprague-Dawley rat assessed as blood glucose level at 250 mg/kg, po after 7 days (reference value: 106.3 +/- 0.6666 mg/dl)
Rattus norvegicus [6] = experiment: Antihyperlipidemic activity in high fat diet-induced hyperlipidemic Sprague-Dawley rat assessed as blood HDL level at 250 mg/kg, po after 7 days (reference value: 19 +/- 0.5774 mg/dl)

Compound | Activity (Rattus norvegicus [1]) | Activity (Rattus norvegicus [2]) | Activity (Rattus norvegicus [3]) | Activity (Rattus norvegicus [4]) | Activity (Rattus norvegicus [5]) | Activity (Rattus norvegicus [6])
CC(=O)Nc1nc(-c2ccc(OC(C)(C)C(=O)O)cc2)cs1 | 60.63 mg/dL | 16.1 mg/dL | 108.3 mg/dL | 80.5 mg/dL | 81.5 mg/dL | 32.67 mg/dL
CC(C)(Oc1ccc(-c2csc(NC(=O)CCl)n2)cc1)C(=O)O | 59.53 mg/dL | 17.1 mg/dL | 111.5 mg/dL | 85.5 mg/dL | 72.33 mg/dL | 34.33 mg/dL
CC(C)(Oc1ccc(-c2csc(NC(=O)c3ccccc3)n2)cc1)C(=O)O | 43.67 mg/dL | 15.47 mg/dL | 96.5 mg/dL | 85.5 mg/dL | 74.5 mg/dL | 37 mg/dL
CC(C)(Oc1ccc(-c2csc(NCC(=O)c3ccc(Cl)cc3)n2)cc1)C(=O)O | 61.18 mg/dL | 16.23 mg/dL | 108.3 mg/dL | 77.33 mg/dL | 74.33 mg/dL | 32.5 mg/dL
CC(C)(Oc1ccc(-c2csc(NC(=O)CC(=O)Cl)n2)cc1)C(=O)O | 67.75 mg/dL | 16.53 mg/dL | 116.5 mg/dL | 81.17 mg/dL | 66.67 mg/dL | 35.83 mg/dL
CC(C)(Oc1ccc(-c2csc(NC(=O)C(=O)Cl)n2)cc1)C(=O)O | 49.35 mg/dL | 15.47 mg/dL | 96.5 mg/dL | 82.67 mg/dL | 75.17 mg/dL | 32.5 mg/dL
CC(C)OC(=O)C(C)(C)Oc1ccc(C(=O)c2ccc(Cl)cc2)cc1 [FENOFIBRATE] | 55.33 mg/dL | 14.67 mg/dL | 105.2 mg/dL | 73.17 mg/dL | 70.5 mg/dL | 33.5 mg/dL
